In brackets after ≈: the same amount, converted by molar mass.
Assays:
[1] = tested on: M. tuberculosis H37Rv::pCHERRY3; format: cell-based, Mycobacterium tuberculosis; conditions: OD and fluorescence readouts, 5 d, listed as Ambien, 1
replicating Mtb H37Rv = format: cell-based; conditions: Mycobacterium tuberculosis, read-out: MIC in MABA

Cc1ccc(-c2nc3ccc(C)cn3c2CC(=O)N(C)C)cc1 [Compound 1, N,N-dimethyl-2-(6-methyl-2-p-tolyl-imidazo[1,2-a]pyridin-3-yl)acetamide]
MIC Mtb H37Rv 7H9-Tw-OADC [1]: 10 µM (≈ 3.07 µg/mL)
MIC (replicating Mtb H37Rv): 49 to 53 µM (≈ 15.1 to 16.3 µg/mL)

— paper PMC4426345 (ACS Infectious Diseases, 2014)
